Test results taken from the supplement of paper PMC10307832.

Legend:
Test in all cases: relative viability (nuclei count vs DMSO), 5 days (fraction); higher = more cells survive
[1] = compound: CN1CCN(CC1)C2=CC(=C(C=C2)NC3=NC=C4C(=N3)N(C5=CC=CC=C5C(=O)N4C)C)OC [XMD8-85] + Cc1cc(Nc2cc(N3CCN(C)CC3)nc(Sc3ccc(NC(=O)C4CC4)cc3)n2)n[nH]1 [Tozasertib] (partner 0.1 µM)
Procedure, shortened: (§1)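 Cells from lung cancer lines were seeded into 1536-well plates and, one day later, dosed by pin tool. Treatments were either a single drug or a fixed dose of an anchor drug with five library-drug doses (not always all listed) in √10 steps. After 5 days, nuclei were stained in a one-step fixation (final 0.05% Triton X-100, 1% formaldehyde, 1 ug/ml Hoechst) and counted on 4× images, and relative viability is the treated-to-vehicle nuclei ratio, as the median of duplicate plates.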

[2] = compound: O=C(O)C(Cc1ccccc1[N+](=O)[O-])=NNc1nc(-c2ccc(Cl)c(Cl)c2)cs1 (mixture of isomers) [4EGI-1] + N=C(N)NC(=N)NCCc1ccccc1 [Phenformin] (partner 250 µM)
Procedure, shortened: as §1

[3] = compound: CN1CCN(CC1)C2=CC(=C(C=C2)NC3=NC=C4C(=N3)N(C5=CC=CC=C5C(=O)N4C)C)OC [XMD8-85] + NC(=O)Nc1cc(-c2cccc(F)c2)sc1C(=O)N[C@H]1CCCNC1 [AZD7762] (partner 0.2 µM)
Procedure, shortened: as §1

[4] = compound: CN1CCN(CC1)C2=CC(=C(C=C2)NC3=NC=C4C(=N3)N(C5=CC=CC=C5C(=O)N4C)C)OC [XMD8-85] + Nc1nc2[nH]cc(CCc3ccc(C(=O)N[C@@H](CCC(=O)O)C(=O)O)cc3)c2c(=O)[nH]1 [Pemetrexed] (partner 0.2 µM)
Procedure, shortened: as §1

Cell Line	relative viability ([1]; first compound 0.08 µM)	relative viability ([1]; first compound 0.253 µM)	relative viability ([1]; first compound 0.8 µM)	relative viability ([1]; first compound 2.53 µM)	relative viability ([1]; first compound 8 µM)	relative viability ([2]; first compound 0.5 µM)	relative viability ([2]; first compound 1.581 µM)	relative viability ([2]; first compound 5 µM)	relative viability ([2]; first compound 15.81 µM)	relative viability ([2]; first compound 50 µM)	relative viability ([3]; first compound 0.08 µM)	relative viability ([3]; first compound 0.253 µM)	relative viability ([3]; first compound 0.8 µM)	relative viability ([3]; first compound 2.53 µM)	relative viability ([3]; first compound 8 µM)	relative viability ([4]; first compound 0.08 µM)	relative viability ([4]; first compound 0.253 µM)	relative viability ([4]; first compound 0.8 µM)	relative viability ([4]; first compound 2.53 µM)	relative viability ([4]; first compound 8 µM)
LCLC-103H	0.451	0.449	0.581	0.45	0.383	0.337	0.349	0.34	0.354	0.287	0.769	0.825	0.811	0.851	0.781	0.426	0.452	0.401	0.432	0.398
LU99A	0.281	0.257	0.252	0.253	0.239	1.03	0.595	0.924	0.885	0.391	0.328	0.504	0.407	0.378	0.341	0.162	0.179	0.183	0.199	0.165
NCI-H322M	0.427	0.496	0.462	0.451	0.436	0.794	–	0.891	0.689	0.301	0.566	0.606	0.568	0.451	0.38	0.579	0.596	0.606	0.59	0.48
NCI-H522	0.557	0.562	0.41	0.519	0.467	0.641	0.548	0.676	0.626	0.551	0.697	0.851	0.798	0.859	0.69	0.762	0.916	1.01	1.08	0.825
